Among the data in PubChem BioAssay AID230 (DTP/NCI, 2004) are T/C values, retold here.

Values joined by “and” are separate entries in the source; they are usually repeats but may differ in a detail not shown here. Equal values may be shown once. Toxic doses and inconclusive results are not listed.

The assay concerns C3H/He mice, Gardner lymphosarcoma 6C3HED ip, survival T/C. Nature of the assay: NCI In Vivo Anticancer Drug Screen. Data for tumor model Lymphosarcoma Gardner 6C3HED (intraperitoneal) in C3H/He mice. The following applies: higher = longer survival. On the procedure:
The antitumor activity of compounds was measured in mice bearing transplantable tumors. Survival or tumor size were measured and the results are expressed as the measurement made in the treated group (T) divided by the measurement made in the vehicle treated control group (C). The tumor model used in this assay is Lymphosarcoma Gardner 6C3HED (intraperitoneal) in C3H/He mice

Where [1] appears, read: endpoint: survival time, mean or median, dose: 0.25 mg/kg/injection, schedule: Q01DX010 (ip), vehicle: saline.
Where [2] appears, read: endpoint: survival time, mean or median, dose: 0.5 mg/kg/injection, schedule: Q01DX010 (ip), vehicle: saline.
Where [3] appears, read: endpoint: survival time, mean or median, dose: 125.0 micrograms/kg/injection, schedule: Q01DX010 (ip), vehicle: saline.
Setting [4] is: endpoint: survival time, mean or median, dose: 250.0 micrograms/kg/injection, schedule: Q01DX010 (ip), vehicle: saline.
Setting [5] is: endpoint: survival time, mean or median, dose: 6.25 mg/kg/injection, schedule: Q01DX010 (ip), vehicle: saline.
The mark [6] stands for this setting: endpoint: survival time, mean or median, dose: 12.5 mg/kg/injection, schedule: Q01DX010 (ip), vehicle: saline.
Where [7] appears, read: endpoint: survival time, mean or median, dose: 50.0 mg/kg/injection, schedule: Q01DX010 (ip), vehicle: saline.
Setting [8] is: endpoint: survival time, mean or median, dose: 1.56 mg/kg/injection, schedule: Q01DX010 (ip), vehicle: saline.
Where [9] appears, read: endpoint: survival time, mean or median, dose: 3.13 mg/kg/injection, schedule: Q01DX010 (ip), vehicle: saline.
The mark [10] stands for this setting: endpoint: survival time, mean or median, dose: 4.0 mg/kg/injection, schedule: Q01DX010 (ip), vehicle: saline.
The mark [11] stands for this setting: endpoint: survival time, mean or median, dose: 1.25 mg/kg/injection, schedule: Q01DX010 (ip), vehicle: saline.
Setting [12] is: endpoint: survival time, mean or median, dose: 5.0 mg/kg/injection, schedule: Q01DX010 (ip), vehicle: saline.
[13] abbreviates: endpoint: survival time, mean or median, dose: 10.0 mg/kg/injection, schedule: Q01DX010 (ip), vehicle: saline.
Setting [14] is: endpoint: survival time, mean or median, dose: 20.0 mg/kg/injection, schedule: Q01DX010 (ip), vehicle: saline.
[15] abbreviates: endpoint: survival time, mean or median, dose: 25.0 mg/kg/injection, schedule: Q01DX010 (ip), vehicle: saline.
Setting [16] is: endpoint: median survival time, dose: 12.5 mg/kg/injection, schedule: Q01DX003 (ip), vehicle: saline.
Setting [17] is: endpoint: median survival time, dose: 12.5 mg/kg/injection, schedule: Q12HX006 (ip), vehicle: saline.
The mark [18] stands for this setting: endpoint: median survival time, dose: 25.0 mg/kg/injection, schedule: Q01DX003 (ip), vehicle: saline.
Setting [19] is: endpoint: median survival time, dose: 25.0 mg/kg/injection, schedule: Q12HX006 (ip), vehicle: saline.
[20] abbreviates: endpoint: median survival time, dose: 50.0 mg/kg/injection, schedule: Q01DX003 (ip), vehicle: saline.
Where [21] appears, read: endpoint: median survival time, dose: 50.0 mg/kg/injection, schedule: Q12HX006 (ip), vehicle: saline.
The mark [22] stands for this setting: endpoint: survival time, mean or median, dose: 100.0 mg/kg/injection, schedule: Q01DX010 (ip), vehicle: saline.

Take `CC(=O)NC1=C(N2CC2)C(=O)C(NC(C)=O)=C(N2CC2)C1=O`: the T/C reads like this: (endpoint: survival time, mean or median, dose: 0.13 mg/kg/injection, schedule: Q01DX010 (ip), vehicle: saline) 117 % of control; under setting [1], 92 % of control; under setting [2], 103 % of control; (endpoint: survival time, mean or median, dose: 63.0 micrograms/kg/injection, schedule: Q01DX010 (ip), vehicle: saline) 170 % of control; under setting [3], 204 % of control; under setting [4], 114 % of control.
For the molecule `O=P1(N(CCCl)CCCl)NCCCO1` (stereo unspecified), the T/C was 116 % of control (endpoint: median survival time, dose: 12.5 mg/kg/injection, schedule: Q01DX007 (ip), vehicle: saline); 163 % of control (endpoint: median survival time, dose: 20.0 mg/kg/injection, schedule: Q01DX003 (ip), vehicle: saline); 116 % of control (endpoint: median survival time, dose: 25.0 mg/kg/injection, schedule: Q01DX007 (ip), vehicle: saline); 209 % of control and 724 % of control (endpoint: median survival time, dose: 40.0 mg/kg/injection, schedule: Q01DX003 (ip), vehicle: saline); 190 % of control and 722 % of control (endpoint: median survival time, dose: 80.0 mg/kg/injection, schedule: Q01DX003 (ip), vehicle: saline); 100 % of control under setting [5]. For the same molecule, the T/C runs as follows: under setting [6], 115 % of control; under setting [7], 115 % of control.
Take `CS(=O)(=O)OCCCCOS(C)(=O)=O`: the T/C by setting is: under setting [8], 95 % of control; under setting [9], 90 % of control; under setting [5], 95 % of control; under setting [6], 104 % of control.
Turning to `Nc1c(Br)cc2c(c1Br)Cc1cc([N+](=O)[O-])ccc1-2`, for the setting “endpoint: survival time, mean or median, dose: 7.8 mg/kg/injection, schedule: Q01DX010 (ip), vehicle: saline”, the T/C is 92 % of control.
`Nc1nc(=S)c2ncn(C3OC(CO)C(O)C3O)c2[nH]1` (stereo unspecified): the T/C was 114 % of control (endpoint: median survival time, dose: 0.5 mg/kg/injection, schedule: Q01DX009 (ip), vehicle: saline); 100 % of control (endpoint: median survival time, dose: 1.0 mg/kg/injection, schedule: Q01DX009 (ip), vehicle: saline); 105 % of control (endpoint: median survival time, dose: 2.0 mg/kg/injection, schedule: Q01DX009 (ip), vehicle: saline); 94 % of control (endpoint: median survival time, dose: 4.0 mg/kg/injection, schedule: Q01DX009 (ip), vehicle: saline); 96 % of control (endpoint: median survival time, dose: 8.0 mg/kg/injection, schedule: Q01DX009 (ip), vehicle: saline); 119 % of control under setting [2]. Further, the T/C reads like this: (endpoint: survival time, mean or median, dose: 1.0 mg/kg/injection, schedule: Q01DX010 (ip), vehicle: saline) 112 % of control and 115 % of control; (endpoint: survival time, mean or median, dose: 2.0 mg/kg/injection, schedule: Q01DX010 (ip), vehicle: saline) 100 % of control and 111 % of control; under setting [10], 96 % of control.
Take `[I][Hg][CH2]C1COC([CH2][Hg][I])CO1` (stereo unspecified): the T/C under setting [8] was 93 % of control and the T/C under setting [9] was 100 % of control.
For the molecule `O=[n+]1c2c(n([O-])c3ccccc31)-c1cccc3cccc-2c13`, the T/C under setting [9] is 86 % of control.
Turning to `Nc1ncnc2c1ccn2C1OC(CO)C(O)C1O` (stereo unspecified), the T/C under setting [1] is 90 % of control.
With `NC(Cc1ccc(N(CCCl)CCCl)cc1)C(=O)O` (stereo unspecified), the T/C by setting is: under setting [11], 107 % of control; under setting [12], 89 % of control and 119 % of control.
For `CC1CN1P(=S)(N1CC1C)N1CC1C` (stereo unspecified), the T/C by setting is: under setting [11], 103 % of control; (endpoint: survival time, mean or median, dose: 2.5 mg/kg/injection, schedule: Q01DX010 (ip), vehicle: saline) 100 % of control and 103 % of control; under setting [12], 92 % of control and 107 % of control; under setting [13], 100 % of control and 103 % of control; under setting [14], 107 % of control.
Regarding `CC(=O)O[C@]1(C(C)=O)CC[C@H]2[C@@H]3C[C@H](C)C4=CC(=O)C=C[C@]4(C)[C@@]3(F)[C@@H](O)C[C@@]21C`, the T/C is 100 % of control (endpoint: survival time, mean or median, dose: 6.25 mg/kg/injection, schedule: Q01DX010 (sc), vehicle: steriod suspending solution); 96 % of control (endpoint: survival time, mean or median, dose: 12.5 mg/kg/injection, schedule: Q01DX010 (sc), vehicle: steriod suspending solution); 92 % of control (endpoint: survival time, mean or median, dose: 25.0 mg/kg/injection, schedule: Q01DX010 (sc), vehicle: steriod suspending solution); 92 % of control (endpoint: survival time, mean or median, dose: 50.0 mg/kg/injection, schedule: Q01DX010 (sc), vehicle: steriod suspending solution).
Turning to `Cn1cnc([N+](=O)[O-])c1Sc1ncnc2nc[nH]c12`, the T/C reads like this: under setting [13], 86 % of control; under setting [14], 93 % of control; (endpoint: survival time, mean or median, dose: 40.0 mg/kg/injection, schedule: Q01DX010 (ip), vehicle: saline) 86 % of control; (endpoint: survival time, mean or median, dose: 80.0 mg/kg/injection, schedule: Q01DX010 (ip), vehicle: saline) 86 % of control.
`COS(C)(=O)=O`: the T/C was 119 % of control under setting [6], 300 % of control under setting [15] and 300 % of control under setting [7].
Turning to `CS(=O)(=O)OCCN(CCOS(C)(=O)=O)c1ccc(N=O)cc1`, the T/C was 107 % of control (endpoint: survival time, mean or median, dose: 62.5 micrograms/kg/injection, schedule: Q01DX010 (ip), vehicle: saline); 111 % of control under setting [3]; 111 % of control under setting [4]; 92 % of control (endpoint: survival time, mean or median, dose: 500.0 micrograms/kg/injection, schedule: Q01DX010 (ip), vehicle: saline).
For the molecule `Nc1ncnc2c1ncn2C1OC(CO)C(O)C1O` (stereo unspecified), the T/C by setting is: under setting [16], 90 % of control; (endpoint: median survival time, dose: 12.5 mg/kg/injection, schedule: Q11DX018 (ip), vehicle: saline with Tween-80) 96 % of control; under setting [17], 108 % of control; under setting [18], 95 % of control; under setting [19], 112 % of control; under setting [20], 100 % of control. The T/C under setting [21] is 120 % of control.
On to `CCN(CC)C(=S)S`, for which the T/C is, setting by setting: (endpoint: survival time, mean or median, dose: 125.0 mg/kg/injection, schedule: Q01DX010 (ip), vehicle: saline) 93 % of control; (endpoint: survival time, mean or median, dose: 500.0 mg/kg/injection, schedule: Q01DX010 (ip), vehicle: saline) 96 % of control.
As to `O=c1[nH]cnc2c1ncn2C1OC(CO)C(O)C1O` (stereo unspecified), the T/C under setting [16] is 90 % of control; the T/C under setting [17] is 101 % of control; the T/C under setting [18] was 95 % of control; the T/C under setting [19] is 104 % of control; the T/C under setting [20] was 100 % of control; the T/C under setting [21] was 106 % of control.
With `OC(CBr)C(O)C(O)C(O)CBr` (stereo unspecified), the T/C reads like this: under setting [15], 88 % of control and 96 % of control; under setting [7], 88 % of control and 110 % of control; under setting [22], 100 % of control and 110 % of control; (endpoint: survival time, mean or median, dose: 200.0 mg/kg/injection, schedule: Q01DX010 (ip), vehicle: saline) 88 % of control and 110 % of control.
As to `Nc1ncnc2c1ncn2C1OC(COC=O)C(O)C1O` (stereo unspecified), the T/C is 90 % of control (endpoint: median survival time, dose: 13.8 mg/kg/injection, schedule: Q01DX003 (ip), vehicle: saline); 104 % of control (endpoint: median survival time, dose: 13.8 mg/kg/injection, schedule: Q12HX006 (ip), vehicle: saline); 104 % of control (endpoint: median survival time, dose: 27.6 mg/kg/injection, schedule: Q01DX003 (ip), vehicle: saline); 104 % of control (endpoint: median survival time, dose: 27.6 mg/kg/injection, schedule: Q12HX006 (ip), vehicle: saline); 104 % of control (endpoint: median survival time, dose: 55.2 mg/kg/injection, schedule: Q01DX003 (ip), vehicle: saline); 120 % of control (endpoint: median survival time, dose: 55.2 mg/kg/injection, schedule: Q12HX006 (ip), vehicle: saline).
`COc1cc(-c2ccc(Nc3ccccc3C(=O)O)c(OC)c2)ccc1Nc1ccccc1C(=O)O`: the T/C reads like this: under setting [6], 117 % of control; under setting [15], 107 % of control and 117 % of control; under setting [7], 117 % of control and 118 % of control; under setting [22], 96 % of control.
Take `CCCCn1cnc2c(=S)nc[nH]c21`: the T/C is 100 % of control under setting [10]; 93 % of control (endpoint: survival time, mean or median, dose: 8.0 mg/kg/injection, schedule: Q01DX010 (ip), vehicle: saline); 90 % of control and 92 % of control (endpoint: survival time, mean or median, dose: 16.0 mg/kg/injection, schedule: Q01DX010 (ip), vehicle: saline).
